Measurements from patent publication US5712269A, “M2 receptor ligand for the treatment of neurological disorders” (Pharmaceutical Discovery Corporation, priority 1995, dated 1998).
Entries after “also recorded” stand apart in the source; their conditions may differ.

Key:
[1] = partition coefficient between 1-octanol and 0.1M phosphate; assay type: physicochemical; conditions: 1-octanol / 0.1M phosphate
[2] = tested on: muscarinic cholinergic receptor; conditions: background statement; cited from earlier work
M2 receptors = biological target: T1, M2 receptors (Rattus norvegicus, UniProt P10980); assay: inhibition of [^3 H]AF-DX-384 binding to M2 receptors in the rat brain
T1 construct: from tissue; host or cells: rat brain
T1 sequence (P10980 1-466): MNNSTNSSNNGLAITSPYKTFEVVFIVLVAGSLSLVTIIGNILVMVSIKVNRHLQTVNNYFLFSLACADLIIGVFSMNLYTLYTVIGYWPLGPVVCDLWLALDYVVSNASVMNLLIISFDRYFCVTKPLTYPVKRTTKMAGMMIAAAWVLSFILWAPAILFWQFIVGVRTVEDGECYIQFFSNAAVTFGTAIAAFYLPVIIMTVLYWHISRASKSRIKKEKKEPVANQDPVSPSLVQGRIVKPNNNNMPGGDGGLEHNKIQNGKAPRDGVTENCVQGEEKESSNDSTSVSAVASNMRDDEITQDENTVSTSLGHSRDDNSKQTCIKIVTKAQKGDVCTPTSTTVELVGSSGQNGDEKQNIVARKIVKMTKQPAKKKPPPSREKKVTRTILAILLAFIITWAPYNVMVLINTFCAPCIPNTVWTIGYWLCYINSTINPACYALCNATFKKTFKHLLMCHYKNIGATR
Text: FIG. 5 is a graph of the inhibition of [^3 H]AF-DX-384 binding to M2 receptors in the rat brain by PDC008.004, determined as % specific [^3 H]AFDX 384 binding versus log [PDC008.004] in nM.

mice [3] = assay: behavioral observation after intraperitoneal injection; assay type: in vivo, mouse
mice [4] = assay: Watermaze behavioral studies; assay type: in vivo, mouse (male C57 BL/6); conditions: 10 mg/kg intraperitoneally
Text: The following procedures are standard techniques routinely used by those skilled in the art (Morris, R. G. M., 1981)
Male C57 BL/6 mice, 30 g body weight. Minimum 50 animals. Obtainable from The Jackson Laboratories, Bar Harbor, Rt. 3, Me. 04609.
Circular water tank made of sturdy (10 mm thick, minimum) black (or very dark, opaque) lucite or other plastic. Diameter of the tank: 1 meter; Wall height: 50 cm. The tank must have a valve connected to a large diameter (min 1.5 cm inner) water filling/draining rubber hose (min. length 10 ft).
Two targets, one made of the same plastic as the water tank (the "black target"), and one made of translucent variety. Base made of heavy lucite (1 inch thick) shaped as a square with 10 inch sides. Height between the upper surface of the base and the lower surface of the target platform: 20 cm. Target platform support: 20 cm tall, circular rod (1 inch diam.). Circular target platform, 8 cm across, made of 0.5 cm thick plastic and covered with a non-skid material (surgical tape can be used) painted either black or white (depending on the target).
Regimen "A" consists of concurrent injections of either drug(s) or saline and swimming. Injections administered in a sequence: injection--24h--swim--2h--injection--24h--swim--2h--injection . . . etc., until a stable "time to target" plateau among the controls will be reached. […]

Compound | partition coefficient (log P) [1] | effect on memory function [2] | Ki (M2 receptors) | motor activity after a single injection (mice [3]; 10 mg/kg, intraperitoneally, 24 hour period prior to behavioral testing) | signs observed in injected animals (mice [3]; 100 mg/kg intraperitoneally) | penetration into the intracerebral space (mice [3]; inferred from very swift central cholinergic mediated events, intraperitoneal) | movement pattern change in watermaze (mice [4]; 10 treated vs 10 control mice) | time required to find a hidden target (target latency) after the fourth trial (mice [4]; daily injections, mice)
CCN(CC)CCN(CC(=O)N1c2ccccc2C(=O)Nc2cccnc21)CC1CCCCC1.Cl [Compound 6, 11-[[[2-(Diethylamino)ethyl]cyclohexylmethylamino]-acetyl]-5,11-dihydro-6H-pyrido [2,3-b][1,4]-benzodiazepin-6-one hydrochloride salt] | 0.16 | – | – | – | – | – | – | –
CN1[C@@H]2C[C@@H](OC(=O)[C@H](CO)c3ccccc3)C[C@H]1[C@@H]1O[C@@H]12 [scopolamine] | – | impair memory function | – | – | – | – | – | –
CCN(CC)CCN(CC(=O)N1c2ccccc2C(=O)Nc2cccnc21)CC1CCCCC1 [PDC 008.004, 11-[[[2-(diethylamino)ethyl]cyclohexylmethylamino]-acetyl]-5,11-dihydro-6H-pyrido [2,3-b][1,4]-benzodiazepin-6-one] | 0.78±0.18 | – | 422 nM | increased motor activity | presence of dyskinesia, ataxia, and absence of flaccid paralysis | rapid penetration into the intracerebral space | substantial and significant (P>0.01) movement pattern change; also recorded: rapid shift from thygmotactic (wall-hugging) to center crossing and center crossing-goal oriented behavior | substantial statistically significant (P<0.05) decrease
